# According to patent US8420657B2 (Novartis AG, priority 2008, dated 2013):
# Columns and labels:
# [1] = biological target: T1, GST-JAK2(808-1132) (Homo sapiens, UniProt O60674); assay: JAK2 kinase assay (Caliper mobility shift, LabChip 3000); type: biochemical
# T1 construct: GST-JAK2(808-1132); purchased Invitrogen (Carlsbad, USA) #4288
# In short: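 Recombinant GST-JAK2(808-1132) kinase domain with FITC-labelled JAK3tide peptide substrate and ATP; 60 min at 30 °C, EDTA stop. Substrate/product ratio read by microfluidic mobility shift; compounds at 8 final concentrations, 10 to 0.003 μM.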
# [2] = test system: JAK1/JAK2-dependent nuclear translocation of STAT1-GFP in HT1080 fibrosarcoma cells; assay: STAT1 nuclear translocation assay (Cellomics), IFN-γ stimulated HT1080 STAT1-GFP cells; type: cell-based; settings: Homo sapiens, HT-1080, STAT1 translocation pathway
# In short: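 HT1080 cells stably expressing STAT1-GFP, pre-treated 30 min with compound (10 μM–0.003 μM, 0.1% DMSO), then stimulated 2 h with 100 ng/ml IFN-γ, fixed and Hoechst-stained. Nuclear-cytoplasmic GFP differential imaged over ≥1000 cells/well, normalised to unstimulated and DMSO-stimulated wells for IC50.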
# T1 sequence (O60674 808-1132): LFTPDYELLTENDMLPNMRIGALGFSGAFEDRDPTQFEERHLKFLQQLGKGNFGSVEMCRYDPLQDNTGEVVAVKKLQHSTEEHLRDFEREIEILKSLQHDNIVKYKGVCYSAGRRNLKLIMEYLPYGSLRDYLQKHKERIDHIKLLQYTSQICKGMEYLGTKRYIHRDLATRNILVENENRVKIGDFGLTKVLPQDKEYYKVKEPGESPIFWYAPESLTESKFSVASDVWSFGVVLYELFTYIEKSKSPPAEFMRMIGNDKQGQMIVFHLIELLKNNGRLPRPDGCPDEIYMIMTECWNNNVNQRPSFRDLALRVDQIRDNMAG
SMILES,IC50 [1] [nM],IC50 [2] [nM]
"CS(=O)(=O)c1ccc(-n2ccc3cnc(Nc4ccc(C(=O)NCCN5CCOCC5)cc4)nc32)cc1 [Example 67, 4-[7-(4-Methanesulfonyl-phenyl)-7H-pyrrolo[2,3-d]pyrimidin-2-ylamino]-N-(2-morpholin-4-yl-ethyl)-benzamide]",< 3,39
"CC(C)Oc1ccc(Nc2ncc3ccn(-c4ccc(CN5CCOCC5)c(Cl)c4)c3n2)cc1 [Example 110, [7-(3-Chloro-4-morpholin-4-yl methyl-phenyl)-7H-pyrrolo[2,3-d]pyrimidin-2-yl]-(4-isopropoxy-phenyl)-amine]",13.5,1110
"CCN1CCN(Cc2ccc(-n3ccc4cnc(Nc5ccc(F)c(C)c5)nc43)cc2F)CC1 [Example 124, {7-[4-(4-Ethyl-piperazin-1-ylmethyl)-3-fluoro-phenyl]-7H-pyrrolo[2,3-d]pyrimidin-2-yl}-(4-fluoro-3-methyl-phenyl)-amine]",85,2160
"O=C(c1ccc(Nc2ncc3ccn(-c4ccc(CN5CCS(=O)(=O)CC5)cc4)c3n2)cc1)N1CCOCC1 [Example 153, (4-{7-[4-(1,1-Dioxido-thiomorpholin-4-ylmethyl)-phenyl]-7H-pyrrolo[2,3-d]pyrimidin-2-ylamino}-phenyl)-morpholin-4-yl-methanone]",< 3,17.5
"CS(=O)(=O)c1ccc(-n2ccc3cnc(Nc4cccc(CN5CCCCC5)c4)nc32)cc1 [Example 41, [7-(4-Methanesulfonyl-phenyl)-7H-pyrrolo[2,3-d]pyrimidin-2-yl]-(3-piperidin-1-ylmethyl-phenyl)-amine]",< 3,75
"COc1cc(Nc2ncc3ccn(-c4ccc(C(=O)N5CCN(C)CC5)c(F)c4)c3n2)ccc1F [Example 154, {2-Fluoro-4-[2-(4-fluoro-3-methoxy-phenylamino)-pyrrolo[2,3-d]pyrimidin-7-yl]-phenyl}-(4-methyl-piperazin-1-yl)-methanone]",250,6440
"CCN1CCN(C(=O)c2ccc(Nc3ncc4ccn(-c5cc(F)c(CN6CCOCC6)c(F)c5)c4n3)cc2)CC1 [Example 171, {4-[7-(3,5-Difluoro-4-morpholin-4-ylmethyl-phenyl)-7H-pyrrolo[2,3-d]pyrimidin-2-ylamino]-phenyl}-(4-ethyl-piperazin-1-yl)-methanone]",< 3,260
"Cc1ccc(Nc2ncc3ccn(-c4ccc(C(=O)N5CCOCC5)c(F)c4)c3n2)cc1CN1CCNCC1 [Example 336, {2-Fluoro-4-[2-(4-methyl-3-piperazin-1-ylmethyl-phenylamino)-pyrrolo[2,3-d]pyrimidin-7-yl]-phenyl}-morpholin-4-yl-methanone]",3.6,205
"Cc1ccc(Nc2ncc3cc(C)n(-c4ccc(CC(=O)N5CCN(C)CC5)cc4)c3n2)cc1C [Example 161, 2-{4-[2-(3,4-Dimethyl-phenylamino)-6-methyl-pyrrolo[2,3-d]pyrimidin-7-yl]-phenyl}-1-(4-methyl-piperazin-1-yl)-ethanone]",870,9350
"Cc1ccc(Nc2ncc3ccn(-c4ccc(C(=O)NCCN5CCN(C)CC5)c(F)c4)c3n2)cc1C [Example 298, 4-[2-(3,4-Dimethyl-phenylamino)-pyrrolo[2,3-d]pyrimidin-7-yl]-2-fluoro-N-[2-(4-methyl-piperazin-1-yl)-ethyl]-benzamide]",23,2210
"O=C(Cc1ccc(-n2ccc3cnc(Nc4ccc(C(F)(F)F)cc4)nc32)cc1)N1CCOCC1 [Example 144, 1-Morpholin-4-yl-2-{4-[2-(4-trifluoromethyl-phenylamino)-pyrrolo[2,3-d]pyrimidin-7-yl]-phenyl}-ethanone]",4.7,475
"Cc1ccc(Nc2ncc3ccn(-c4ccc(C(=O)N5CCN(C)CC5)c(F)c4)c3n2)cc1C [Example 155, {4-[2-(3,4-Dimethyl-phenylamino)-pyrrolo[2,3-d]pyrimidin-7-yl]-2-fluoro-phenyl}-(4-methyl-piperazin-1-yl)-methanone]",200,3280
"CC(C)Oc1ccc(Nc2ncc3ccn(-c4ccc(C(C)N5CCOCC5)cc4)c3n2)cc1 (racemic) [Example 193, (4-Isopropoxy-phenyl)-{7-[4-(1-morpholin-4-yl-ethyl)-phenyl]-7H-pyrrolo[2,3-d]pyrimidin-2-yl}-amine]",8.4,351
"CN1CCN(C(=O)c2c(F)cc(-n3ccc4cnc(Nc5ccc(CN6CCS(=O)(=O)CC6)cc5)nc43)cc2F)CC1 [Example 190, (4-{2-[4-(1,1-Dioxido-thiomorpholin-4-ylmethyl)-phenylamino]-pyrrolo[2,3-d]pyrimidin-7-yl}-2,6-difluoro-phenyl)-(4-methyl-piperazin-1-yl)-methanone]",5.2,439
"COc1cc(Nc2ncc3ccn(-c4ccc(C(=O)N5CCOCC5)cc4)c3n2)ccc1C [Example 240, {4-[2-(3-Methoxy-4-methyl-phenylamino)-pyrrolo[2,3-d]pyrimidin-7-yl]-phenyl}-morpholin-4-yl-methanone]",5.2,730
"CC(=O)N1CCN(Cc2ccc(Nc3ncc4ccn(-c5cc(F)c(CN6CCNC(=O)C6)c(F)c5)c4n3)cc2)CC1 [Example 339, 4-(4-{2-[4-(4-Acetyl-piperazin-1-ylmethyl)-phenylamino]-pyrrolo[2 3-d]pyrimidin-7-yl}-2,6-difluoro-benzyl)-piperazin-2-one]",3.7,285
"CCN1CCN(Cc2ccc(Nc3ncc4ccn(-c5cc(F)c(CN6CCS(=O)(=O)CC6)c(F)c5)c4n3)cc2)CC1 [Example 188, {7-[4-(1,1-Dioxido-thiomorpholin-4-ylmethyl)-3,5-difluoro-phenyl]-7H-pyrrolo[2,3-d]pyrimidin-2-yl}-[4-(4-ethyl-piperazin-1-ylmethyl)-phenyl]-amine]",< 3,60
"CC(C)Oc1ccc(Nc2ncc3ccn(-c4ccc(C(C)O)cc4)c3n2)cc1 (stereo not shown) [Example 114, 1-{4-[2-(4-Isopropoxy-phenylamino)-pyrrolo[2,3-d]pyrimidin-7-yl]-phenyl}-ethanol]",5.9,202
"O=C(c1ccc(Nc2ncc3ccn(-c4ccc(CN5CCOCC5)c(F)c4)c3n2)cc1)N1CCOCC1 [Example 157, {4-[7-(3-Fluoro-4-morpholin-4-ylmethyl-phenyl)-7H-pyrrolo[2,3-d]pyrimidin-2-ylamino]-phenyl}-morpholin-4-yl-methanone]",6.1,130
"CN1CCN(c2cc(Nc3ncc4ccn(-c5cc(F)c(C(=O)N6CCOCC6)c(F)c5)c4n3)ccn2)CC1 [Example 243, (2,6-Difluoro-4-{2-[2-(4-methyl-piperazin-1-yl)-pyridin-4-ylamino]-pyrrolo[2,3-d]pyrimidin-7-yl}-phenyl)-morpholin-4-yl-methanone]",< 3,225
"CN1CCN(C(=O)c2ccc(Nc3ncc4ccn(-c5cc(F)c(CN6CCS(=O)(=O)CC6)c(F)c5)c4n3)cc2C(F)(F)F)CC1 [Example 186, (4-{7-[4-(1,1-Dioxido-thiomorpholin-4-ylmethyl)-3,5-difluoro-phenyl]-7H-pyrrolo[2,3-d]pyrimidin-2-ylamino}-2-trifluoromethyl-phenyl)-(4-methyl-piperazin-1-yl)-methanone]",< 3,95
"Cc1cc(-n2ccc3cnc(Nc4ccc(OC(C)C)cc4)nc32)ccc1CN1CCOCC1 [Example 111, (4-Isopropoxy-phenyl)-[7-(3-methyl-4-morpholin-4-ylmethyl-phenyl)-7H-pyrrolo[2,3-d]pyrimidin-2-yl]-amine]",14.5,846
"C[C@@H]1CN(c2ccc(Nc3ncc4ccn(-c5cc(F)c(CN6CCNC(=O)C6)c(F)c5)c4n3)cn2)C[C@H](C)N1 [Example 342, 4-(4-{2-[6-(cis-3,5-Dimethyl-piperazin-1-yl)-pyridin-3-ylamino]-pyrrolo[2,3-d]pyrimidin-7-yl}-2,6-difluoro-benzyl)-piperazin-2-one]",≤ 3,479
"Cc1cc(Nc2ncc3ccn(-c4ccc(C(=O)N5CCOCC5)c(Cl)c4)c3n2)ccc1F [Example 90, {2-Chloro-4-[2-(4-fluoro-3-methyl-phenylamino)-pyrrolo[2,3-d]pyrimidin-7-yl]-phenyl}-morpholin-4-yl-methanone]",3.4,715
"COc1cc(Nc2ncc3ccn(-c4ccc(S(=O)(=O)NC(C)(C)C)cc4)c3n2)cc(OC)c1OC [Example 8, N-tert-Butyl-4-[2-(3,4,5-trimethoxy-phenylamino)-pyrrolo[2,3-d]pyrimidin-7-yl]-benzenesulfonamide]",< 3,32
CC(C)Oc1ccc(Nc2ncc3ccn(-c4ccc(CN5CCCNCC5)c(F)c4)c3n2)cc1 [Example 108],6.6,1680
"CCN1CCN(Cc2c(F)cc(-n3ccc4cnc(Nc5ccc(F)c(C)c5)nc43)cc2F)CC1=O [Example 134, 4-{2,6-Difluoro-4-[2-(4-fluoro-3-methyl-phenylamino)-pyrrolo[2,3-d]pyrimidin-7-yl]-benzyl}-1-ethyl-piperazin-2-one]",20.5,1880
"CS(=O)(=O)c1ccc(-n2ccc3cnc(Nc4ccc(C(=O)N5CCNCC5)cc4)nc32)cc1 [Example 87, {4-[7-(4-Methanesulfonyl-phenyl)-7H-pyrrolo[2,3-d]pyrimidin-2-ylamino]-phenyl}-piperazin-1-yl-methanone]",3.8,18300
"CC(=O)c1ccc(-n2ccc3cnc(Nc4ccc(F)cc4)nc32)cc1 [Example 60, 1-{4-[2-(4-Fluoro-phenylamino)-pyrrolo[2,3-d]pyrimidin-7-yl]-phenyl}-ethanone]",8.1,4080
